{"source": "patent US9649313B2", "about": "“Use of ITK inhibitors for the treatment of cancer” (The University of North Carolina at Chapel Hill, priority 2012, dated 2017)", "key": {"ABL": {"target": "T1, ABL (Homo sapiens, UniProt P00519)", "T1 construct": "purchased Carna Biosciences", "T1 sequence (P00519 whole entry)": "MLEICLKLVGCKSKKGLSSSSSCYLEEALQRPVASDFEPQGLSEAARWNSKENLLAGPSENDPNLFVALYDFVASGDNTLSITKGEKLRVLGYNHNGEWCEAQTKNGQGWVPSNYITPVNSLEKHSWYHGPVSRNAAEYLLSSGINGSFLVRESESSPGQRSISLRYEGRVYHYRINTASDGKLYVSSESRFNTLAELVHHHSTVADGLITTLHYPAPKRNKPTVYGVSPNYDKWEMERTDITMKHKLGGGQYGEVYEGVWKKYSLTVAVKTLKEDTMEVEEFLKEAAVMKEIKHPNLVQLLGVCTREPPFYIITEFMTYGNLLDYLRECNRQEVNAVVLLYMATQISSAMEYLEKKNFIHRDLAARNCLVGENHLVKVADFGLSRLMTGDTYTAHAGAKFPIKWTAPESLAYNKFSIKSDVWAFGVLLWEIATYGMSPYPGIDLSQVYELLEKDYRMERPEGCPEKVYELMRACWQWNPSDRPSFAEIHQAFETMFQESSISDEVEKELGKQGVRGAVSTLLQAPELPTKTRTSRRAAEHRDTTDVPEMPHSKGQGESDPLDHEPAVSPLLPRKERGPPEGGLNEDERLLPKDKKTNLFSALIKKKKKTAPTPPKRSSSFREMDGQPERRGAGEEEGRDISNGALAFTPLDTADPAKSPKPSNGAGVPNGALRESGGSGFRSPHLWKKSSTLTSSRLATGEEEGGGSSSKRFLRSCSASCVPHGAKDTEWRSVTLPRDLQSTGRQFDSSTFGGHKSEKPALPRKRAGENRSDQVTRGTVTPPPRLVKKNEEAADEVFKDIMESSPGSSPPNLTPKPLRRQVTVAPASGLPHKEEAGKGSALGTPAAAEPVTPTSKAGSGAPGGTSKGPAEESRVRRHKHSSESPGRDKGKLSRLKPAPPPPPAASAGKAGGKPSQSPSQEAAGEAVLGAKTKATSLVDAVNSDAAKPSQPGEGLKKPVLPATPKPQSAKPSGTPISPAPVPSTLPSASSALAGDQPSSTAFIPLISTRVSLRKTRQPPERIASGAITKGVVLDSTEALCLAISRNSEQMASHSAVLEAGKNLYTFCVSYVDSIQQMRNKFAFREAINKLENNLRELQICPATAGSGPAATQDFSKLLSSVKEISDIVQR", "experiment": "cell-free kinase assay", "assay_type": "biochemical", "excerpt": "(§1) We investigated the potency and selectivity of BI 10N against 56 kinases using a cell-free assay (Table 8A). […] The selectivity of this inhibitor was investigated by testing the potency of the inhibitor at two concentrations with 53 kinases by Carna Biosciences (MA) (Table 2)."}, "FYN": {"target": "T2, FYN (Homo sapiens, UniProt P06241)", "T2 construct": "purchased Carna Biosciences", "T2 sequence (P06241 whole entry)": "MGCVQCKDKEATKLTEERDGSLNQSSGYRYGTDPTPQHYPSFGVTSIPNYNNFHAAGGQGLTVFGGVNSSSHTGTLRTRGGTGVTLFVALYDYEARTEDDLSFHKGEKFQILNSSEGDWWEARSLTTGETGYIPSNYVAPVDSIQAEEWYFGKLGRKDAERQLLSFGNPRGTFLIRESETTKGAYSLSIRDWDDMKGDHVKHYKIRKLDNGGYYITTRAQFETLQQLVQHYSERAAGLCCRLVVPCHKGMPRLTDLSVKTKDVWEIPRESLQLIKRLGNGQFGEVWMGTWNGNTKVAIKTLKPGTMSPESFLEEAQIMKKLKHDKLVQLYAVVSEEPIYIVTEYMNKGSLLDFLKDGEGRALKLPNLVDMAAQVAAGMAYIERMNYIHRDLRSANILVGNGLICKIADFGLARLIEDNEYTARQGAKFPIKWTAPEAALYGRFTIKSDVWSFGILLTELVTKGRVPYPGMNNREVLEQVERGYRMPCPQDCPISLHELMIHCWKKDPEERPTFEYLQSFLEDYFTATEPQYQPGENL", "experiment": "cell-free kinase assay", "assay_type": "biochemical", "details": "Table 2, by Carna Biosciences", "excerpt": "as §1"}, "IGF1R": {"target": "T3, IGF1R (Homo sapiens, UniProt P08069)", "T3 construct": "purchased Carna Biosciences", "T3 sequence (P08069 31-1367)": "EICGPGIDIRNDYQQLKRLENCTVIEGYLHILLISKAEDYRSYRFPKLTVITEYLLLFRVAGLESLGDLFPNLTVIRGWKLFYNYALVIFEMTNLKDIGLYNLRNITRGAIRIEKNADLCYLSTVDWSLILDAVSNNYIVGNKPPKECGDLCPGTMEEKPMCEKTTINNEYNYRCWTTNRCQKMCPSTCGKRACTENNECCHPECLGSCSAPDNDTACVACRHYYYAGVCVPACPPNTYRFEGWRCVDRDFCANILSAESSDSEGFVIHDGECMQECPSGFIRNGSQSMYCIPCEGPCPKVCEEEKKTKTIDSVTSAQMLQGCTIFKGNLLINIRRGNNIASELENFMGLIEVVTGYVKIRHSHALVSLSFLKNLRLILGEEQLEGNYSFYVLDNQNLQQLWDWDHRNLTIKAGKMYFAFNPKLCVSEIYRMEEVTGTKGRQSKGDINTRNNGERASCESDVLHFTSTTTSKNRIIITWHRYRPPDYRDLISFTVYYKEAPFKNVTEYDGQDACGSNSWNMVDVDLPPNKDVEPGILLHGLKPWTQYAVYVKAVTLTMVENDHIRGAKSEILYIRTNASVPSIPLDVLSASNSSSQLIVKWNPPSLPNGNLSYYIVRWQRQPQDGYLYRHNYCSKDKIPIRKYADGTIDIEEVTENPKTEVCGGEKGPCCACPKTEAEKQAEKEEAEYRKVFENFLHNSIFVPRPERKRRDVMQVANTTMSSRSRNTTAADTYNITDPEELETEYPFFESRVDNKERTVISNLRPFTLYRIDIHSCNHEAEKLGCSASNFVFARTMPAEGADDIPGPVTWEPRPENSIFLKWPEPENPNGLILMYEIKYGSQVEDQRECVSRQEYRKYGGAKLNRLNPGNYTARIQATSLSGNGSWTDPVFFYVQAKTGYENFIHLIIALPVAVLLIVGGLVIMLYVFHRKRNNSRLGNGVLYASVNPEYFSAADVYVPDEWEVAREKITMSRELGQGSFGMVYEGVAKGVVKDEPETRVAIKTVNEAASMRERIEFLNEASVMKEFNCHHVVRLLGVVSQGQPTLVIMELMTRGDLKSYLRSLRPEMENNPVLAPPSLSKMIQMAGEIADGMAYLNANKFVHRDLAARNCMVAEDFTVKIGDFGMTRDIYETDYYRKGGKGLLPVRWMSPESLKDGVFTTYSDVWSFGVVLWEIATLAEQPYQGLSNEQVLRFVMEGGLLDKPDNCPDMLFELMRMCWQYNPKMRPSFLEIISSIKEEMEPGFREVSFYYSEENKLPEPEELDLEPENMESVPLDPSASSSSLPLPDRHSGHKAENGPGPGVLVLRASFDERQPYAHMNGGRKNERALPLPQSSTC", "experiment": "cell-free kinase assay", "assay_type": "biochemical", "excerpt": "as §1"}, "TRKC": {"target": "T4, TRKC (Homo sapiens, UniProt Q16288)", "T4 construct": "purchased Carna Biosciences", "T4 sequence (Q16288 32-839)": "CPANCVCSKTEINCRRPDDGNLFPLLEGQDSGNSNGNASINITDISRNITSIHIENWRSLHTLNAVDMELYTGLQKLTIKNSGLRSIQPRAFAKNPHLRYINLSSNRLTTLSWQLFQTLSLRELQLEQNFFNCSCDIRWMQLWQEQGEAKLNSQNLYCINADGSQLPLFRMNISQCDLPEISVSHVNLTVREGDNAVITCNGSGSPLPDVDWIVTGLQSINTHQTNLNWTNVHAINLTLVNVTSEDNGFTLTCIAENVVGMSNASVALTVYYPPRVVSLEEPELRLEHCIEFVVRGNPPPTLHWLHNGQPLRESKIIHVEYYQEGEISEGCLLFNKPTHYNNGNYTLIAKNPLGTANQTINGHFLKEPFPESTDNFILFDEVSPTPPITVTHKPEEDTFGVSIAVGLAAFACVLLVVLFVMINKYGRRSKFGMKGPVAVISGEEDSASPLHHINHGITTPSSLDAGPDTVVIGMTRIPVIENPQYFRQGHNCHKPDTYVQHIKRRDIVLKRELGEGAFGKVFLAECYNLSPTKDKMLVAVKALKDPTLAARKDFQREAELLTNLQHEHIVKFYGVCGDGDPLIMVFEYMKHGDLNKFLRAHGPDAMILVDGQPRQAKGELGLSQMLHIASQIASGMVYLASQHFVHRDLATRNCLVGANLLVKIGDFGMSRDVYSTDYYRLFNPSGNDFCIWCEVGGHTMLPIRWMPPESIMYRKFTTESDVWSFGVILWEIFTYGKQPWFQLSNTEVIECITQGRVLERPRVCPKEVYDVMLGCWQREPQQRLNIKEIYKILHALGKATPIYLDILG", "experiment": "cell-free kinase assay", "assay_type": "biochemical", "excerpt": "as §1"}, "LCK": {"target": "T5, LCK (Homo sapiens, UniProt P06239)", "T5 construct": "purchased Carna Biosciences", "T5 sequence (P06239 whole entry)": "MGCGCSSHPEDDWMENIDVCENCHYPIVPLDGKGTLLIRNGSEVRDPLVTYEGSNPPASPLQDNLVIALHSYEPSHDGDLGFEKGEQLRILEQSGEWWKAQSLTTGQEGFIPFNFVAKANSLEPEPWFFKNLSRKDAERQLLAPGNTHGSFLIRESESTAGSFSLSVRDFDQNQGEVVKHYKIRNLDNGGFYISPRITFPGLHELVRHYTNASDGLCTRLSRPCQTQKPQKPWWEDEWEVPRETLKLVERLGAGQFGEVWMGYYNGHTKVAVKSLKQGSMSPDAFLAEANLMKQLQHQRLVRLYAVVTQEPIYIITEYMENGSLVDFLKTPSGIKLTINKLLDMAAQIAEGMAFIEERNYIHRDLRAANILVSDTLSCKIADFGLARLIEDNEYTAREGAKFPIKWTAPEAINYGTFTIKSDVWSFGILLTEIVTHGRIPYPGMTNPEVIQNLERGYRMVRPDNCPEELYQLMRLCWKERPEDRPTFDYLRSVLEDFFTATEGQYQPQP", "experiment": "cell-free kinase assay", "assay_type": "biochemical", "excerpt": "as §1"}, "TRKA": {"target": "T6, TRKA (Homo sapiens, UniProt P04629)", "T6 construct": "purchased Carna Biosciences", "T6 sequence (P04629 33-796)": "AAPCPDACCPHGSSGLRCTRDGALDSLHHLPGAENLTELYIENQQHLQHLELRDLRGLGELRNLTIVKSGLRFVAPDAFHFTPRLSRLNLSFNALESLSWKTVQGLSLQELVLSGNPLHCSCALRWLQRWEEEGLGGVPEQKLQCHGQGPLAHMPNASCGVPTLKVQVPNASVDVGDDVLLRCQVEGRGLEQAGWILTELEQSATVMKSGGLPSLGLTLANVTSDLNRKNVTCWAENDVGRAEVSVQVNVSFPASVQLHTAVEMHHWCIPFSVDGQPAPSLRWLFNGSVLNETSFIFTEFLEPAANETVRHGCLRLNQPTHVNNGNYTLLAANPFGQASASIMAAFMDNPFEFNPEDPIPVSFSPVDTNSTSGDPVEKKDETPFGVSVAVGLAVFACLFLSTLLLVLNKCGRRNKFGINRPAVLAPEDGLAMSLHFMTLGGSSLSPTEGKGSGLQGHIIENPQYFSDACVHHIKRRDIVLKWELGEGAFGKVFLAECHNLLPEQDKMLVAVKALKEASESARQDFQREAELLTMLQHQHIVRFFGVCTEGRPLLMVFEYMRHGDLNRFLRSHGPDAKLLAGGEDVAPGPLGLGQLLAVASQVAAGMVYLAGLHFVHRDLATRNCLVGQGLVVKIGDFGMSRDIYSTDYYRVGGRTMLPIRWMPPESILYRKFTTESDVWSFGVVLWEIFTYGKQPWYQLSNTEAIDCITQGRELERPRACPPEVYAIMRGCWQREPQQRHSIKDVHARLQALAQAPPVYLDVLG", "experiment": "cell-free kinase assay", "assay_type": "biochemical", "excerpt": "as §1"}, "FGFR1": {"target": "T7, FGFR1 (Homo sapiens, UniProt P11362)", "T7 construct": "purchased Carna Biosciences", "experiment": "cell-free kinase assay", "assay_type": "biochemical", "excerpt": "as §1"}, "[1]": {"details": "Riether et al., 2009; cited from earlier work"}, "[2]": {"system": "PMWK (ITKLO) melanoma cell line", "experiment": "single cell motility assay", "assay_type": "cell-based, Human", "excerpt": "(§2) FIG. 4A-4E. Effects of ITK knockdown on proliferation and motility of melanoma cells. FIG. 4A) Western of lysates of VMM 39 containing each of the four shRNA constructs using rabbit monoclonal anti ITK (Y401). FIG. 4B) The four shRNA lentiviral constructs were used to transduce three melanoma cell lines, PMWK (ITKLO), VMM 39 (ITKHI), and RPMI 8322 (ITKHI). 50,000 cells were placed into each well of a 6 well plate, which was then counted 3, 5, and 6, or 7 days after plating to assess the proliferation rates of the different cell lines. FIG. 4C) Single Cell Motility assays were performed on three different melanoma cell lines, PMWK, VMM 39, and RPMI 8322. Each melanoma cell line was transduced with the four shRNA lentiviral constructs producing a total of 12 cell lines. 10,000 cells were plated on fibronectin coated glass bottom dishes. Pictures were taken once every 40 minutes for 16 hours. FIG. 4D) Cell cycle analysis of PMWK, VMM 39, and RPMI 8322 cells that have been transduced with various shRNAs. Cells were harvested after 3 hours of incubation with 5-ethynyl-2′-deoxyuridine (EdU). EdU incorporation and DNA content with FxCycle Violet were analyzed using flow cytometry. Illustrated in this panel are the percentages of cells in G0/G1 (low DNA and EdU content), S (high EdU and low-to-medium DNA content), and G2/M (Low EdU and high DNA content). FIG. 4E) Single-cell motility analysis of PMWK, VMM 39, and RPMI 8322 that have been transduced with various shRNAs. At least 50 cells were tracked for each cell line and the average motility rate was determined. Shown with asterisks are the shRNA-transduced melanoma cell lines with significant impairment in motility (P<0.001 one-way ANOVA following Bonferroni adjustments for multiple comparisons).\n(§3) FIG. 5A-5C. Effects of BI 10N inhibitor on proliferation and motility of melanoma cells. FIG. 5A) Cell motility assays were performed as described in FIG. 4A-4E; however, the inhibitor BI 10N was added to the media to decrease ITK kinase activity in parental cell lines instead of using the shRNA ITK knockdown cell lines. BI 10N was added to the media 24 hours prior to the start of the motility assay and the VivaView camera system was used to image cellular motility of the melanoma cells as described previously. […] Cells were trypsinized and counted using the Invitrogen Countess. […] The cells were counted with the Invitrogen Countess at 3, 5, and 6 or 7 days after plating to assess the proliferation rates of the different cell lines in the presence of BI 10N. […] Following 3 days of BI 10N treatment, the cells were incubated with EdU for 3 hours and were subsequently assessed for 5-ethynyl-2′-deoxyuridine (EdU) incorporation rate and DNA content with FxCycle Violet. […]"}, "[3]": {"system": "VMM 39 (ITKHI) melanoma cell line", "experiment": "single cell motility assay", "assay_type": "cell-based, Human", "details": "VMM39; 10-25 nM", "excerpt": "as §2, §3"}, "[4]": {"system": "RPMI 8322 (ITKHI) melanoma cell line", "experiment": "single cell motility assay", "assay_type": "cell-based, Human", "details": "10-25 nM", "excerpt": "as §2, §3"}}, "note": "pIC50: −log10 of the molar value."}
{"smiles": "CC(C)C(C)CNCc1ccc2c(c1)[nH]/c(=N\\C(=O)c1ccc(C3=CN=NC3)s1)n2CC(C)(C)O", "note": "(stereo not shown) [BI 10N]", "values": [{"measurement": "pIC50", "setting": "ABL; Table 2, by Carna Biosciences", "value": 7.63}, {"measurement": "inhibition at 0.2 µM", "setting": "ABL; single inhibitor concentration", "value": 91.9, "unit": "%"}, {"measurement": "pIC50", "setting": "FYN", "value": 7.62}, {"measurement": "pIC50", "setting": "IGF1R; Table 2, by Carna Biosciences", "value": 6.05}, {"measurement": "inhibition at 0.2 µM", "setting": "IGF1R; single inhibitor concentration", "value": 19, "unit": "%"}, {"measurement": "pIC50", "setting": "TRKC", "value": 8.80}, {"measurement": "selectivity for ITK over TRKC", "setting": "TRKC", "value": "about 10 fold"}, {"measurement": "pIC50", "setting": "LCK; Table 2, by Carna Biosciences", "value": 7.97}, {"measurement": "inhibition at 0.2 µM", "setting": "LCK; single inhibitor concentration", "value": 96.7, "unit": "%"}, {"measurement": "selectivity for ITK over TRKA", "setting": "TRKA", "value": "about 10 fold"}, {"measurement": "mode of inhibition", "setting": "TRKA; TRKA", "value": "time-dependent inhibitor"}, {"measurement": "pIC50", "setting": "TRKA; TRKA, 1 mM ATP, Km ATP 65 μM", "value": 9.08}, {"measurement": "pIC50", "setting": "TRKA; TRKA, ATP at approximately the Km for ATP, more potent than can be measured", "value": "> 9.30"}, {"measurement": "pIC50", "setting": "TRKA; TRKA, Table 2, by Carna Biosciences", "value": 9.34}, {"measurement": "inhibition at 0.2 µM", "setting": "TRKA; TRKA, single inhibitor concentration", "value": 106, "unit": "%"}, {"measurement": "pIC50", "setting": "FGFR1; Table 2, by Carna Biosciences", "value": 7.22}, {"measurement": "inhibition at 0.2 µM", "setting": "FGFR1; single inhibitor concentration", "value": 80.2, "unit": "%"}, {"measurement": "F value (bioavailable in mice)", "setting": "[1]", "value": 21, "unit": "%"}, {"measurement": "concentration required for smaller changes in migration", "setting": "[2]", "value": "≥ 150", "unit": "nM"}, {"measurement": "effect on migration", "setting": "[2]; 10-25 nM", "value": "do not decrease"}, {"measurement": "decrease in migration", "setting": "[3]", "value": "about 50%"}, {"measurement": "decrease in migration", "setting": "[4]", "value": "about 50%"}]}
